Assay results published in patent US20100113276A1, “USE OF N2-PHENYLAMIDINES AS HERBICIDES” (BAYER CROPSCIENCE AG, priority 2007, published 2010).

Assay: log P by HPLC on reversed-phase column (C18), EEC Directive 79/831 Annex V.A8
Format: physicochemical
Conditions: C18, 40° C.; for log p H3PO4: 0.1% aqueous phosphoric acid / acetonitrile; for log p HCO2H: aqueous formic acid / acetonitrile
Protocol: The log P data were determined in accordance with the EEC Directive 79/831 Annex V.A8 by HPLC (High Performance Liquid Chromatography) on a reversed-phase column (C18) using the following methods: […]
Calibration was carried out with the help of unbranched alkan-2-ones (consisting of 3 to 13 or 16 carbon atoms) with known logP values (determination of the logP values via the retention times by means of linear interpolation between two subsequent alkanones).

Compound | log p acidic | log p H3PO4 | log p HCO2H | log p neutral
Cc1cc(Oc2cc(Cl)cc(C(F)(F)F)c2)c(Cl)cc1N=CN(C)C [compound 564] | 2.51 | – | – | –
Cc1cc(Oc2ccc(C#N)c(C(F)(F)F)c2)c(C)cc1N=CN1CCCCC1 [compound 228] | 1.92 | – | 2.14 | 5.35
CCC(C)N(C)C=Nc1cc(Cl)c(Oc2ccc(Cl)c(C(C)C)c2)cc1C (centres unmarked) [compound 573] | 2.90 | – | 2.90 | 7.14
CCN(C)C=Nc1cc(Cl)c(Oc2ccc(Cl)c(C(C)(C)C)c2)cc1C [compound 388] | – | – | 3.02 | 6.70
Cc1cc(Oc2cc(Cl)cc(C(F)(F)F)c2)c(Cl)cc1N=CN1CCCC1 [compound 567] | 2.66 | – | – | –
CCN(C)C=Nc1cc(Cl)c(Oc2ccc(Cl)c(C(C)C)c2)cc1C [compound 570] | – | – | 2.95 | 6.37
Cc1cc(Oc2ccc(Cl)c(C(F)(F)F)c2)c(C)cc1N=CN1CCCCC1 [compound 36] | – | – | 2.59 | 6.36
Cc1cc(Oc2cc(Cl)cc(Br)c2)c(C)cc1N=CN(C)C(C)C [compound 328] | 2.70 | – | – | 6.81
Cc1cc(Oc2ccc(Cl)c(C(C)(C)C)c2)c(Cl)cc1N=CN(C)C1CC1 [compound 577] | – | – | 3.24 | 6.94
Cc1cc(Oc2ccc(Cl)c(C(C)C)c2)c(C)cc1N=CN(C)C(C)C [compound 401] | – | – | – | 7.36
CCN(C)C=Nc1cc(C)c(Oc2nc(C(C)C)ns2)cc1C [compound 547] | 1.74 | – | – | 4.33
Cc1cc(Oc2ccc(Cl)c(C(C)C)c2)c(Cl)cc1N=CN(C)C(C)C [compound 572] | – | – | 2.87 | 6.70
CCCN(C)C=Nc1cc(C)c(Oc2ccc(Br)c(C(C)C)c2)cc1C [compound 356] | 2.93 | – | – | 7.01
CCc1cc(Oc2cc(C)c(N=CN3CCCCC3)cc2Cl)ccc1Cl [compound 587] | – | – | 2.74 | 6.73
CCN(C)C=Nc1cc(C)c(OCc2sc(Cl)nc2Cl)cc1C [compound 555] | – | 1.99 | – | –
CCN(C)C=Nc1cc(C)c(Oc2cccc(Oc3ccccc3)c2)cc1C [compound 290] | 2.51 | – | – | –
CCc1cc(Oc2cc(C)c(N=CN(C)C3CC3)cc2Cl)ccc1Cl [compound 585] | – | – | 2.89 | 6.34
Cc1cc(Oc2cc(F)cc(Br)c2)c(C)cc1N=CN(C)C(C)C [compound 321] | 2.37 | – | – | 6.21
CCCN(C)C=Nc1cc(Cl)c(Oc2ccc(Cl)c(C(C)C)c2)cc1C [compound 571] | – | – | 3.03 | 6.79
CCN(C)C=Nc1cc(C)c(Oc2cccc(-c3cccnc3Cl)c2)cc1C [compound 130] | 2.05 | – | – | 4.53

Second part, the molecule after the results:

log p acidic | log p H3PO4 | log p HCO2H | log p neutral | Compound
– | 2.87 | 2.62 | 5.91 | Cc1cc(N=CN(C)C(C)C)c(Cl)cc1Oc1ccc(C(C)C)cc1 [compound 889]
– | 2.34 | 2.56 | 5.25 | CCN(C)C=Nc1cc(Cl)c(Oc2nc(C(C)(C)C)ns2)cc1Cl [compound 825]
– | – | 2.41 | – | Cc1cc(Oc2ncnc(Oc3ccc(Cl)cc3)c2F)c(Cl)cc1N=CN1CCCCC1 [compound 622]
2.1 | – | – | 4.92 | CCN(C)C=Nc1cc(C)c(Oc2nc(C(C)(C)C)ns2)cc1Cl [compound 916]
– | 1.86 | 1.91 | 4.49 | CCN(C)C=Nc1cc(Cl)c(Oc2ccccc2)cc1Cl [compound 801]
– | 2.81 | 3.04 | 6.41 | CC(C)(C)c1cccc(Oc2cc(Cl)c(N=CN3CCCCC3)cc2Cl)c1 [compound 809]
2.4 | – | – | – | CCN(C)C=Nc1cc(F)c(Oc2cccc(C(C)(C)C)c2)cc1F [compound 830]
– | 3.16 | 3.17 | 6.64 | CCN(C)C=Nc1cc(Cl)c(Oc2ccc(Cl)c(C(C)(C)C)c2)cc1Cl [compound 811]
– | 2.77 | 2.62 | 6.14 | Cc1cc(N=CN2CCCCC2)c(Cl)cc1Oc1cccc(C(C)C)c1 [compound 878]
– | 2.79 | 2.54 | 5.84 | Cc1cc(N=CN(C)C(C)C)c(Cl)cc1Oc1cccc(C(C)(C)C)c1 [compound 871]
– | 2.6 | 2.65 | 5.56 | CCN(C)C=Nc1cc(Cl)c(Oc2ccc(Cl)c(C(F)(F)F)c2)cc1Cl [compound 816]
– | 2.22 | – | – | Cc1cc(-c2ccc(Cl)cc2)c(F)cc1N=CN(C)C(C)C [compound 665]
3.21 | – | – | 6.92 | Cc1cc(Oc2ccc(Br)c(C(C)C)c2)c(Cl)cc1N=CN(C)C(C)C [compound 591]
– | 2.61 | 2.45 | 5.58 | CCN(C)C=Nc1cc(C)c(Oc2ccc(C(C)C)cc2)cc1Cl [compound 888]
2.67 | – | – | – | CCN(C)C=Nc1cc(Br)c(Oc2ccc(Cl)c(C(C)(C)C)c2)cc1C [compound 697]
– | 2.85 | 3 | 6.12 | FC(F)(F)c1cc(Oc2cc(Cl)c(N=CN3CCCCC3)cc2Cl)ccc1Cl [compound 819]
– | 3.07 | 2.92 | 6.45 | Cc1cc(N=CN(C)C(C)C)c(Cl)cc1Oc1ccc(Cl)c(C(C)C)c1 [compound 899]
2.3 | – | – | 5.31 | CCN(C)C=Nc1cc(C)c(-c2ccc(Cl)c(C(F)(F)F)c2)cc1Cl [compound 928]
– | 2.63 | 2.47 | 5.44 | CCN(C)C=Nc1cc(C)c(Oc2cccc(Oc3ccccc3)c2)cc1Cl [compound 880]
2.74 | – | – | 6.15 | CCN(C)C=Nc1cc(C(F)(F)F)c(-c2ccc(C(C)(C)C)cc2)cc1Cl [compound 962]
– | 3.12 | 3 | 6.72 | Cc1cc(N=CN2CCCCC2)c(Cl)cc1Oc1ccc(Cl)c(C(C)C)c1 [compound 901]
– | 3.35 | 3.39 | 6.63 | CCN(C)C=Nc1cc(C(F)(F)F)c(Oc2ccc(Cl)c(C(C)(C)C)c2)cc1Cl [compound 944]
2.37 | – | – | – | CCN(C)C=Nc1cc(F)c(-c2ccc(Cl)c(C(F)(F)F)c2)cc1C [compound 656]
2.35 | – | – | 4.5 | COc1cc(Oc2ccc(Cl)c(C(F)(F)F)c2)c(OC)cc1N=CN(C)C(C)C [compound 987]
2.79 | – | – | – | CCN(C)C=Nc1cc(F)c(-c2ccc(C(C)(C)C)cc2)cc1F [compound 846]
– | – | 2.20 | – | CCN(C)C=Nc1cc(Cl)c(Oc2ncnc(Oc3ccc(Cl)cc3)c2F)cc1C [compound 620]
– | – | 2.84 | 6.58 | CCN(C)C=Nc1cc(Cl)c(Oc2ccc(Br)c(C(C)C)c2)cc1C [compound 589]
